# Source: patent US20190030049A1, “Celocoxib Binding Antibodies and Uses Thereof” (Marina Biotech, Inc., priority 2016, published 2019)
# Assay: clinical
# Settings: human, plasma
smiles,measurement,setting,value
"Cc1ccc(-c2cc(C(F)(F)F)nn2-c2ccc(S(N)(=O)=O)cc2)cc1 [celecoxib, Celecoxib]",AUC,100 mg,3400 ng·h/mL
same,AUC,200 mg,6800 ng·h/mL
